# Test results reported in US20170095573A1, “METHODS AND COMPOSITIONS FOR TREATING ALLERGY AND INFLAMMATORY DISEASES” (Baylor Research Institute, priority 2014, published 2017).
# Tests used:
# [1] = system: naïve CD4+ T cells co-cultured with TSLP-activated mDCs; test: TSLP-activated mDC-induced CD4+ T cell responses (co-culture with naive CD4+ T cells, cytokine staining / supernatant); type: cell-based, human; conditions: 20 ug/ml, naïve CD4+ T cells 7 days, PMA/ionomycin 6 h, intracellular staining
# Procedure: (FIG. 10A) Intracellular cytokine levels were analyzed by intracellular staining in cells stimulated with PMA/Ionomycin for 6 hours and with brefeldinA for 4 hrs. (FIG. 10B) Cell supernatant cytokine levels were measured by stimulating the cells with αCD3/CD28 beads for 48 hrs.
# It was next tested whether anti-Dectin-1-Pam3 conjugate can indeed suppress TSLP-activated mDC-induced Th2 type T cell responses. 5×10^3 mDCs were cultured overnight with TSLP in the presence or absence of the same concentration (20 ug/ml) of anti-Dectin-1-Pam3 conjugate, combination of anti-Dectin-1 and Pam3, or Pam 3. 2×10^5 purified naïve CD4+ T cells were then added into the culture. After 7 days, T cells were stimulated for 6 h with PMA/ionomycin in the presence of brefeldin A. Cells were then stained for intracellular expression of IL-13 (Th2 type cytokine) and IFNγ (Th2 type cytokine).
# Next, the Th2-type T cells were tested. mDCs were first primed with 40 ng/mL TSLP and either αdectin-1 or αDectin-1-pam3 at 20 ug/mL After 24 hrs, naïve CD4+ T cells are added to the mDCs and cultured for an additional 6 days. Intracellular cytokine levels were analyzed by intracellular staining in cells stimulated with PMA/Ionomycin for 6 hours and with brefeldinA for 4 hrs (FIG. 10A). Cell supernatant cytokine levels were measured by stimulating the cells with αCD3/CD28 beads for 48 hrs (FIG. 10B).
# [2] = system: dendritic cells and CD4+ T cells; allergic patient PBMCs; test: Th2 responses after curdlan activation of DCs / allergic patient PBMCs; type: cell-based, human
Molecule,IL-13+CD4+ T cell responses [1],"Antigen-specific TH2 responses ([2]; Flu HA1 antigen, DCs and CD4+ T cells, restimulation with HA-1-derived peptides)",Th2-type T cell responses ([2]; allergic patient PBMCs),"Percentage of IL-13+ cells ([2]; restimulation with PMA/Ionomycin, immunostaining)","Total TH2 responses ([2]; restimulation with PMA/Ionomycin, immunostaining for IL-13 and IL-5)"
"CCCCCCCCCCCCCCCC(=O)N[C@@H](CSCC(COC(=O)CCCCCCCCCCCCCCC)OC(=O)CCCCCCCCCCCCCCC)C(=O)N[C@@H](CO)C(=O)N[C@@H](CCCCN)C(=O)N[C@@H](CCCCN)C(=O)N[C@@H](CCCCN)C(=O)N[C@@H](CCCCN)C(=O)O (mixture of isomers) [Pam3, N-Palmitoyl-S-[2,3-bis(palmitoyloxy)-(2RS)-propyl]-[R]-cysteinyl-[S]-seryl-[S]-lysyl-[S]-lysyl-[S]-lysyl-[S]-lysine]",3.47%,–,–,–,–
curdlan,–,decreased antigen-specific TH2 responses,significantly down-regulated Th2-type T cell responses,decreased significantly,downregulates total TH2 responses
